The structures appear in SMILES notation. Some results are limits rather than exact numbers.

T1 sequence (Q12809 whole entry): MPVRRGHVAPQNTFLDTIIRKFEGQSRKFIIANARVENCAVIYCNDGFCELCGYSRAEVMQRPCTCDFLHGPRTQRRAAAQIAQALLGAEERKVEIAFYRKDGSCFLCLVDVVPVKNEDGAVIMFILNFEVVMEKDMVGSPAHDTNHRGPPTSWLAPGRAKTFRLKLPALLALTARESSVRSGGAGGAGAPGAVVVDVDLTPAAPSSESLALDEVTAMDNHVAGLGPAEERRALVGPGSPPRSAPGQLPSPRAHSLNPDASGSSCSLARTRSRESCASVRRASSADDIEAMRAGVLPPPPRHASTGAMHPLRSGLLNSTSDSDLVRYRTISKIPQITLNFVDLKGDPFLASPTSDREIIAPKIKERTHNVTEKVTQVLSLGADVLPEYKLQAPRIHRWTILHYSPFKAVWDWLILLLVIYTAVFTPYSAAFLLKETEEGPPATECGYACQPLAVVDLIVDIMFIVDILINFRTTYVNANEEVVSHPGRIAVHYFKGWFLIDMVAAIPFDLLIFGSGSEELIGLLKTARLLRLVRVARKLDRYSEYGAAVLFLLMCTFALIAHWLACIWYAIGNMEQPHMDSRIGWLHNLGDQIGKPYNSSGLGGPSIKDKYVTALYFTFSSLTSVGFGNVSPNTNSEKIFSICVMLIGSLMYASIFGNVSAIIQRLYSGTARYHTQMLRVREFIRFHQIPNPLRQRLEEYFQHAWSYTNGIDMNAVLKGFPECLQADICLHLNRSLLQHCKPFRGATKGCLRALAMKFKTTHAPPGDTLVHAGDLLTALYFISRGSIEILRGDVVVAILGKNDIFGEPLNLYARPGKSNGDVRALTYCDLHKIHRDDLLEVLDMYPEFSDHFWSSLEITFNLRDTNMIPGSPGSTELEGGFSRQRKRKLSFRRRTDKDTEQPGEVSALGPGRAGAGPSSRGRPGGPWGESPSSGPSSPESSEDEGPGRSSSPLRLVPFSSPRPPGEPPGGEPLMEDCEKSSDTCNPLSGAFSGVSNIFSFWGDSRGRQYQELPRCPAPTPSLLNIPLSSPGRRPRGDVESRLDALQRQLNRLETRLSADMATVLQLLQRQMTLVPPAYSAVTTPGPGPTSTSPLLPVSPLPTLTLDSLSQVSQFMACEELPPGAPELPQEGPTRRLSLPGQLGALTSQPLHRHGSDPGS

The first series has as its system phospho-cdc2 (Tyr15) in HT-29 cells. The experiment in a line: Effect on Cdc2 phosphorylation at Tyr15, Cell-Based ELISA Base Kit (Method 3). The note with it: Homo sapiens, HT-29, 8 h, eight hours incubation, normalized to total cdc2, read-out: HT29 pCDC2 method 3. Summed up: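 HT-29 cells were treated with compounds for 8 h at 37 °C, then fixed in 4% formaldehyde. Phospho-cdc2 (Tyr15) and total cdc2 were read by dual-fluorogenic cell-based ELISA at 600/450 nm. Phospho signal was normalized to total cdc2 and expressed as % of DMSO control, and EC50 came from non-linear regression.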
In the case of `Cc1cc(Nc2ncc3c(n2)N(C)CN(c2c(Cl)cccc2Cl)C3=O)ccc1N1CCNCC1` [Example 6, 3-(2,6-Dichlorophenyl)-1-methyl-7-((3-methyl-4-(piperazin-1-yl)phenyl)amino)-2,3-dihydropyrimido[4,5-d]pyrimidin-4(1H)-one], the EC50 fell in the range of 100 to 1000 nM. On the same count and under the same terms, under `COc1cc(Nc2ncc3c(n2)N(C)CN(c2c(Cl)cccc2Cl)C3=O)ccc1N1CCNCC1` [Example 3, 3-(2,6-Dichlorophenyl)-7-((3-methoxy-4-(piperazin-1-yl)phenyl)amino)-1-methyl-2,3-dihydropyrimido[4,5-d]pyrimidin-4(1H)-one] stands 100 to 1000 nM; under `C[C@@H]1CN(c2ccc(Nc3ncc4c(n3)N(C)CN(c3c(F)cccc3Cl)C4=O)cc2)CCN1` [Example 53, (R)-3-(2-chloro-6-fluorophenyl)-1-methyl-7-((4-(3-methylpiperazin-1-yl)phenyl)amino)-2,3-dihydropyrimido[4,5-d]pyrimidin-4(1H)-one], 100 to 1000 nM. Still for that read-out and setting: as for `COC[C@H]1CN(c2ccc(Nc3ncc4c(n3)N(C)CN(c3c(Cl)cccc3Cl)C4=O)cc2)CCN1` [Example 60, (R)-3-(2,6-dichlorophenyl)-7-((4-(3-(methoxymethyl)piperazin-1-yl)phenyl)amino)-1-methyl-2,3-dihydropyrimido[4,5-d]pyrimidin-4(1H)-one], the figure is 100 to 1000 nM; as for `C[C@H]1CN(c2ccc(Nc3ncc4c(n3)N(C)CN(c3c(Cl)cccc3Cl)C4=O)cc2)CCN1` [Example 17, (S)-3-(2,6-Dichlorophenyl)-1-methyl-7-((4-(3-methylpiperazin-1-yl)phenyl)amino)-2,3-dihydropyrimido[4,5-d]pyrimidin-4(1H)-one], 100 to 1000 nM. The same measure, in the same setting: as for `C[C@@H]1CN(c2ccc(Nc3ncc4c(n3)N(C)CN(c3c(Cl)cccc3Cl)C4=O)cc2)CCN1` [Example 16, (R)-3-(2,6-Dichlorophenyl)-1-methyl-7-((4-(3-methylpiperazin-1-yl)phenyl)amino)-2,3-dihydropyrimido[4,5-d]pyrimidin-4(1H)-one], the figure is 100 to 1000 nM; as for `[2H]C1([2H])N(C)c2nc(Nc3ccc(N4CCNCC4)cc3)ncc2C(=O)N1c1c(Cl)cccc1Cl` [Example 15, 3-(2,6-Dichlorophenyl)-2,2-dideutero-1-methyl-7-((4-(piperazin-1-yl)phenyl)amino)-2,3-dihydropyrimido[4,5-d]pyrimidin-4(1H)-one], 100 to 1000 nM. In the case of `Cc1cc(Nc2ncc3c(n2)N(C)CN(c2c(Cl)cccc2Cl)C3=O)ccc1C1CCNCC1` [Example 18, 3-(2,6-Dichlorophenyl)-1-methyl-7-((3-methyl-4-(piperidin-4-yl)phenyl)amino)-2,3-dihydropyrimido[4,5-d]pyrimidin-4(1H)-one], the EC50 fell in the range of 100 to 1000 nM. Turning to `CNCc1cc(Nc2ncc3c(n2)N(C)CN(c2c(Cl)cccc2Cl)C3=O)ccc1N1CCOCC1` [Example 5, 3-(2,6-Dichlorophenyl)-1-methyl-7-((3-((methylamino)methyl)-4-morpholinophenyl)amino)-2,3-dihydropyrimido[4,5-d]pyrimidin-4(1H)-one], the EC50 lay in the range of 100 to 1000 nM. Regarding `CN1CN(c2c(Cl)cccc2Cl)C(=O)c2cnc(Nc3ccc(N4CCNCC4)cc3)nc21` [Example 1, 3-(2,6-Dichlorophenyl)-1-methyl-7-((4-(piperazin-1-yl)phenyl)amino)-2,3-dihydropyrimido[4,5-d]pyrimidin-4(1H)-one], the EC50 fell in the range of 100 to 1000 nM. Take `CN1CN(c2c(Cl)cccc2Cl)C(=O)c2cnc(Nc3ccc(N4CCN[C@@H](CO)C4)cc3)nc21` [Example 19, (R)-3-(2,6-Dichlorophenyl)-7-((4-(3-(hydroxymethyl)piperazin-1-yl)phenyl)amino)-1-methyl-2,3-dihydropyrimido[4,5-d]pyrimidin-4(1H)-one]: the EC50 was in the range of 100 to 1000 nM. Same read-out and setting: under `C[C@@H]1CN(c2ccc(Nc3ncc4c(n3)N(C)CN(c3c(Cl)cccc3Cl)C4=O)cc2F)CCN1` [Example 43, (R)-3-(2,6-dichlorophenyl)-7-((3-fluoro-4-(3-methylpiperazin-1-yl)phenyl)amino)-1-methyl-2,3-dihydropyrimido[4,5-d]pyrimidin-4(1H)-one] stands 100 to 1000 nM; under `COCc1cc(Nc2ncc3c(n2)N(C)CN(c2c(Cl)cccc2Cl)C3=O)ccc1N1CCN[C@H](C)C1` [Example 59, (R)-3-(2,6-dichlorophenyl)-7-((3-(methoxymethyl)-4-(3-methylpiperazin-1-yl)phenyl)amino)-1-methyl-2,3-dihydropyrimido[4,5-d]pyrimidin-4(1H)-one], 100 to 1000 nM.

For `CN1CCc2ccc(Nc3ncc4c(n3)N(C)CN(c3c(Cl)cccc3Cl)C4=O)cc2C1` [Example 22, 3-(2,6-Dichlorophenyl)-1-methyl-7-((2-methyl-1,2,3,4-tetrahydroisoquinolin-7-yl)amino)-2,3-dihydropyrimido[4,5-d]pyrimidin-4(1H)-one], the EC50 lay within 100 to 1000 nM. Still for that read-out and setting: as for `CN1CN(c2c(Cl)cccc2Cl)C(=O)c2cnc(Nc3ccc(N4CCN(C(=O)CN)CC4)cc3)nc21` [Example 13, 7-((4-(4-(2-Aminoacetyl)piperazin-1-yl)phenyl)amino)-3-(2,6-dichlorophenyl)-1-methyl-2,3-dihydropyrimido[4,5-d]pyrimidin-4(1H)-one], the figure is 100 to 1000 nM; as for `CNCCOc1ccc(Nc2ncc3c(n2)N(C)CN(c2c(Cl)cccc2Cl)C3=O)cc1` [Example 2, 3-(2,6-Dichlorophenyl)-1-methyl-7-((4-(2-(methylamino)ethoxy)phenyl)amino)-2,3-dihydropyrimido[4,5-d]pyrimidin-4(1H)-one], 100 to 1000 nM. For `CC(C)N1CCN(c2ccc(Nc3ncc4c(n3)N(C)CN(c3c(Cl)cccc3Cl)C4=O)cc2CO)CC1` [Example 21, 3-(2,6-Dichlorophenyl)-7-((3-(hydroxymethyl)-4-(4-isopropylpiperazin-1-yl)phenyl)amino)-1-methyl-2,3-dihydropyrimido[4,5-d]pyrimidin-4(1H)-one], the EC50 fell in the range of 100 to 1000 nM. Regarding `CN1CN(c2c(Cl)cccc2Cl)C(=O)c2cnc(Nc3ccc4c(c3)CNCC4)nc21` [Example 14, 3-(2,6-Dichlorophenyl)-1-methyl-7-((1,2,3,4-tetrahydroisoquinolin-7-yl)amino)-2,3-dihydropyrimido[4,5-d]pyrimidin-4(1H)-one], the EC50 fell in the range of 100 to 1000 nM.

In the case of `CN1CN(c2c(F)cccc2Cl)C(=O)c2cnc(Nc3ccc(N4CCNCC4)cc3)nc21` [Example 25, 3-(2-Chloro-6-fluorophenyl)-1-methyl-7-((4-(piperazin-1-yl)phenyl)amino)-2,3-dihydropyrimido[4,5-d]pyrimidin-4(1H)-one], the EC50 was 100 to 1000 nM. The same measure, in the same setting: under `CN1CN(c2c(Cl)cccc2Cl)C(=O)c2cnc(Nc3ccc(N4CCNCC4)c(C#N)c3)nc21` [Example 11, 3-(2,6-Dichlorophenyl)-7-((3-cyano-4-(piperazin-1-yl)phenyl)amino)-1-methyl-2,3-dihydropyrimido[4,5-d]pyrimidin-4(1H)-one] stands 100 to 1000 nM.

Regarding `CN1CN(c2c(Cl)cccc2Cl)C(=O)c2cnc(Nc3ccc(N4CC5CCC(C4)N5C)c(CO)c3)nc21` [Example 86, 3-(2,6-dichlorophenyl)-7-((3-(hydroxymethyl)-4-(8-methyl-3,8-diazabicyclo[3.2.1]octan-3-yl)phenyl)amino)-1-methyl-2,3-dihydropyrimido[4,5-d]pyrimidin-4(1H)-one], the EC50 lay in the range of 100 to 1000 nM.

As for `CN1CN(c2c(Cl)cccc2Cl)C(=O)c2cnc(Nc3ccc(N4CC5CCC(C4)N5)cc3)nc21` [Example 74, 7-((4-(3,8-diazabicyclo[3.2.1]octan-3-yl)phenyl)amino)-3-(2,6-dichlorophenyl)-1-methyl-2,3-dihydropyrimido [4,5-d]pyrimidin-4(1H)-one], the EC50 lay within 100 to 1000 nM.

As to `COCc1cc(Nc2ncc3c(n2)N(C)CN(c2c(Cl)cccc2Cl)C3=O)ccc1N1CCNCC1` [Example 31, 3-(2,6-dichlorophenyl)-7-((3-(methoxymethyl)-4-(piperazin-1-yl)phenyl)amino)-1-methyl-2,3-dihydropyrimido[4,5-d]pyrimidin-4(1H)-one], the EC50 is 100 to 1000 nM.

`C[C@@H]1CN[C@@H](C)CN1c1ccc(Nc2ncc3c(n2)N(C)CN(c2c(Cl)cccc2Cl)C3=O)cc1` [Example 40, 3-(2,6-dichlorophenyl)-7-((4-((2R,5S)-2,5-dimethylpiperazin-1-yl)phenyl)amino)-1-methyl-2,3-dihydropyrimido[4,5-d]pyrimidin-4(1H)-one]: the EC50 is 100 to 1000 nM. Consider `C[C@@H]1CN(c2ccc(Nc3ncc4c(n3)N(C)CN(c3c(Cl)cccc3Cl)C4=O)cc2)[C@@H](C)CN1` [Example 80, 3-(2,6-dichlorophenyl)-7-((4-((2S,5R)-2,5-dimethylpiperazin-1-yl)phenyl)amino)-1-methyl-2,3-dihydropyrimido[4,5-d]pyrimidin-4(1H)-one], for which the EC50 was 100 to 1000 nM.

A further series has as its target T1, human ether a go-go related gene (hERG) K′ channel (Homo sapiens, UniProt Q12809).
T1 construct: Essen BioScience
The experiment in a line: hERG activity, IonWorks patch clamp electrophysiology (Method 6). The class given is cell-based.
Settings: not given
The procedure:
Method 6: Determination of hERG Activity
Compounds were tested for inhibition of the human ether a go-go related gene (hERG) K′ channel using IonWorks patch clamp electrophysiology at Essen BioScience. 8-Point concentration-response curves of the effect of compound on hERG current as a percentage of pre-compound signal were generated using 3-fold serial dilutions from 11 μM and results are reported as IC50 in μM.
As for `Cc1cc(Nc2ncc3c(n2)N(C)CN(c2c(Cl)cccc2Cl)C3=O)ccc1N1CCNCC1` [Example 6, 3-(2,6-Dichlorophenyl)-1-methyl-7-((3-methyl-4-(piperazin-1-yl)phenyl)amino)-2,3-dihydropyrimido[4,5-d]pyrimidin-4(1H)-one], the IC50 (as a rule, the concentration that inhibits the measured activity by half) is above 10000 nM. Still for that read-out and setting: under `C[C@@H]1CN(c2ccc(Nc3ncc4c(n3)N(C)CN(c3c(Cl)cccc3Cl)C4=O)cc2)CCN1` [Example 16, (R)-3-(2,6-Dichlorophenyl)-1-methyl-7-((4-(3-methylpiperazin-1-yl)phenyl)amino)-2,3-dihydropyrimido[4,5-d]pyrimidin-4(1H)-one] stands above 10000 nM; under `CN1CN(c2c(Cl)cccc2Cl)C(=O)c2cnc(Nc3ccc(N4CCNCC4)cc3)nc21` [Example 1, 3-(2,6-Dichlorophenyl)-1-methyl-7-((4-(piperazin-1-yl)phenyl)amino)-2,3-dihydropyrimido[4,5-d]pyrimidin-4(1H)-one], above 10000 nM.

The series is the same for the next values; noted with them: versus analogues from WO2013126656, WO2013013031 and WO2013059485.
In the case of `CNCc1cc(Nc2ncc3c(n2)N(C)CN(c2c(Cl)cccc2Cl)C3=O)ccc1N1CCOCC1` [Example 5, 3-(2,6-Dichlorophenyl)-1-methyl-7-((3-((methylamino)methyl)-4-morpholinophenyl)amino)-2,3-dihydropyrimido[4,5-d]pyrimidin-4(1H)-one], the “hERG inhibition compared with prior art analogues” value is “lower hERG inhibition”.
